The results in this text go back to patent publication US20230109489A1, “Compound and Use Thereof” (FELIQS CORPORATION, priority 2020, published 2023).

Assay [1] can be described thus: LOO. scavenging ability, liposome-AAPH system (AAPH stimulation), NBD-TEEPO fluorescence. The class given is biochemical. Also on record: key: activity = 1 − (FluSample−FluBackground)/(FluControl−FluBackground). The settings on record: test compound 10 μmol/l, AAPH 20 mmol/l, liposomes, 37° C., after 40 minutes. The source says: As described above, the compound of the present invention has peroxyl radical scavenging ability. “Peroxyl radical scavenging ability” in the present invention means the ability to scavenge LOO., for example. The LOO. scavenging ability can be evaluated on the basis of its activity value, for example. The activity value of the LOO. scavenging ability can be evaluated using, for example, the liposome-AAPH (2,2′-azobis(2-amidinopropane)dihydrochloride) system disclosed in WO 2019/009355. More specifically, it can be measured in a manner described in Example 1 below. As a specific example, the activity value of the LOO. scavenging ability can be measured by performing the following steps (vi) to (x): • (vi) preparing a buffer solution containing a compound represented by the formula (A) and liposomes; • (vii) adding 2,2′-azobis(2-amidinopropane)dihydrochloride; • (viii) adding a test compound; • […] measuring a fluorescence; and • (x) determining the activity value of the test compound as per the following equation using the result of the fluorescence measurement.
Activity value of LOO. scavenging ability=1−(FluSample−FluBackground)/(FluControl−FluBackground)
Flusampie: the fluorescence intensity measured in the presence of AAPH and the test compound (n=1)
FluBackground: the fluorescence intensity measured in the absence of AAPH
FluControl: the fluorescence intensity measured in the presence of AAPH and in the absence of the test compound
In step (vi), the concentration of the compound represented by the formula (A) is, for example, 1 to 20 μmol/l and typically 5 μmol/l. The liposomes are prepared from, for example, egg-yolk phosphatidylcholine and dihexadecyl hydrogen phosphate. The concentration of the egg-yolk phosphatidylcholine is, for example, 5 to 10 mg/ml and typically 2.5 mg/ml. The concentration of the dihexadecyl hydrogen phosphate is, for example, 0.01 to 1 mg/ml and typically 0.1 mg/ml.
In step (vii), the concentration of AAPH is, for example, 5 to 50 mmol/l and typically 20 mmol/l.
In step (viii), the concentration of the test compound is 5 to 100 μmol/l. A specific example of the concentration is 10 μmol/l.
In step (ix), the wavelength of excitation light at the time of measuring the fluorescence can be set to, for example, 470 nm; the fluorescence wavelength can be set to, for example, 530 nm; and the fluorescence intensity at 530 nm can be measured. The measurement of the fluorescence is performed, for example, after 1 to 120 minutes has elapsed and typically after 30 to 40 minutes has elapsed since step (viii).
The following solutions were prepared: a solution A containing liposomes (10 mg/ml Egg PC, 0.4 mg/ml DCP) and NBD-TEEPO compound (20 μmol/l) in phosphate buffer (10 mmol/l, pH 7.4, 2.0% acetonitrile); and a solution B containing 80 mmol/l AAPH in phosphate buffer (10 mmol/l, pH 7.4). A 10 μl aliquot of each of the solutions A and B was dispensed using a Multidrop Combi, and these aliquots were mixed together. The final concentrations of the respective components in the phosphate buffer (10 mmol/l, pH 7.4, 0.5% acetonitrile, 1% DMSO) were as follows: the liposomes (2.5 mg/ml Egg PC, 0.1 mg/ml DCP), the NBD-TEEPO compound (5.0 μmol/l), each of the test compounds (10 μmol/l), and AAPH (20 mmol/l).
While incubating the thus-obtained mixture at 37° C., the fluorescence intensity was measured after 40 minutes had elapsed since the mixing of the components. The fluorescence intensity was measured at an excitation wavelength of 470 nm and a fluorescence wavelength of 530 nm. Then, on the basis of the thus-measured fluorescence intensities, the activity value of the LOO. scavenging ability was calculated as per the above-described equation.

Assay [2] is described as follows: LO. scavenging ability, liposome-Fe2+ system (Fe stimulation), NBD-TEEPO fluorescence. The conditions noted are these: for R/L: ratio of activity value (R) of LO. scavenging ability to activity value (L) of LOO. scavenging ability / Fe stimulation (R): activity value of LO. scavenging ability: test compound 10 μmol/l; for Fe stimulation (R): activity value of LO. scavenging ability: FeSO4 1.0 mmol/l, liposomes, 37° C., 180 minutes, 1−(AUCSample/AUCControl). The class given is biochemical. The source says:
As described above, the compound of the present invention has alkoxyl radical scavenging ability. The “alkoxyl radical scavenging ability” in the present invention means the ability to scavenge LO., for example. The LO. scavenging ability can be evaluated on the basis of its activity value, for example. The activity value of the LO. scavenging ability can be evaluated, for example, using the liposome-Fe^2+ system disclosed in WO 2019/009355. More specifically, it can be measured in a manner described in Example 1 below. As a specific example, the activity value of the LO. scavenging ability can be measured by performing the following steps (i) to (v): • (i) preparing a buffer solution containing a compound represented by the formula (A) and liposomes; • (ii) adding a divalent iron ion source material; • (iii) adding a test compound; • […] measuring a fluorescence; and • (v) determining the activity value of the test compound as per the following equation using the result of the fluorescence measurement.
Activity value of LO. scavenging ability=1−(AUCSample/AUCControl)
AUCSample: the area under the curve calculated from the fluorescence intensity measured in the presence of Fe^2+ and the test compound (n=1)
AUCControl: the area under the curve calculated from the fluorescence intensity measured in the presence of Fe^2+ and in the absence of the test compound
In step (i), the concentration of the compound represented by the formula (A) is, for example, 1 to 20 μmol/l and typically 5 μmol/l. The liposomes are prepared from, for example, egg-yolk phosphatidylcholine (Egg PC) and dihexadecyl hydrogen phosphate (DCP). The concentration of the egg-yolk phosphatidylcholine is, for example, 5 to 10 mg/ml and typically […]. The concentration of the dihexadecyl hydrogen phosphate is, for example, 0.01 to 1 mg/ml and typically 0.1 mg/ml.
In step (ii), the concentration of the divalent iron ion source material is, for example, 0.5 to 5 mmol/l and typically 1 mmol/l. The divalent iron ion source material is, for example, iron(II) sulfate.
In step (iii), the concentration of the test compound is 5 to 100 μmol/l. A specific example of the concentration is 10 μmol/l.
In step (iv), the wavelength of excitation light at the time of measuring the fluorescence can be set to, for example, 470 nm; the fluorescence wavelength can be set to, for example, 530 nm; and the fluorescence intensity at 530 nm can be measured. The period for measuring the fluorescence is, for example, from 0 to 240 minutes at intervals of 0.1 to 5 minutes and typically 180 minutes at intervals of 3 minutes, with step (iii) being the start time, for example.
The following solutions were prepared: a solution A containing liposomes (10 mg/ml Egg PC, 0.4 mg/ml DCP) and 20 μmol/l NBD-TEEPO compound (compound represented by the formula (A)) in phosphate buffer (10 mmol/l, pH 7.4, 2.0% acetonitrile); and a solution B containing 4.0 mmol/l FeSO4 in distilled water. A 10 μl aliquot of each of the solutions A and B was dispensed using a Multidrop Combi (Thermo Fisher Scientific), and these aliquots were mixed together. The final concentrations of the respective components in the phosphate buffer (10 mmol/l, pH 7.4, 0.5% acetonitrile, 1% dimethyl sulfoxide (DMSO)) were as follows: the liposomes (2.5 mg/ml Egg PC, 0.1 mg/ml DCP), the NBD-TEEPO compound (5.0 μmol/l), a test compound (10 μmol/l), and FeSO4 (1.0 mmol/l). As the test compound, the compounds represented by the formulae (3) to (5) and (7) to (10) were used as compounds of examples, the compound (methyldopa) represented by the formula (1a) was used as a compound of a comparative example, and edaravone and a SCREEN-WELL® FDA-approved drug library (Enzo Life Sciences) were used as reference examples. The test compounds were dissolved in DMSO. […]

Each structure is given as a SMILES string.

Consider `CCOC(=O)[C@@](C)(N)Cc1ccc(O)c(O)c1` [(10)], for which the “AAPH stimulation (L): activity value of LOO. scavenging ability” value (from here on “AAPH stimulation (L): activity value”) in assay [1] is on record as 0.663. In assay [2], the “R/L: ratio of activity value (R) of LO. scavenging ability to activity value (L) of LOO. scavenging ability” value (shortened to “R/L: ratio of activity value”) was found to be 0.78 and the “Fe stimulation (R): activity value of LO. scavenging ability” value (“Fe stimulation (R): activity value” below) stood at 0.517.
With `CC1=NN(c2ccccc2)C(=O)C1` [Edaravone, 5-methyl-2-phenyl-2,4-dihydro-3H-pyrazol-3-one, reference compound], the “AAPH stimulation (L): activity value” value in assay [1] amounted to 0.293. Besides, in assay [2], the “balance between the LO. scavenging ability and the LOO. scavenging ability (result in words)” value is “approximately the same level of scavenging ability against LO. and LOO”; the “R/L: ratio of activity value” value amounted to 0.98; the “Fe stimulation (R): activity value” value worked out at 0.288.
In the case of `CCC(C)OC(=O)[C@@](C)(N)Cc1ccc(O)c(O)c1` (stereo partly drawn) [Formula (3), s-butyl (2S)-2-amino-3-(3,4-dihydroxyphenyl)-2-methylpropanoate], the “AAPH stimulation (L): activity value” value in assay [1] is reported as 0.726. Besides, in assay [2], the “R/L: ratio of activity value” value was 1.04 and the “Fe stimulation (R): activity value” value is 0.754.
Take `CC(C)(C)OC(=O)[C@@](C)(N)Cc1ccc(O)c(O)c1` [Formula (4), t-butyl (S)-2-amino-3-(3,4-dihydroxyphenyl)-2-methylpropanoate]: in assay [1], the “AAPH stimulation (L): activity value” value is listed as 0.610. In addition, in assay [2], the “R/L: ratio of activity value” value is reported as 1.07 and the “Fe stimulation (R): activity value” value is given as 0.654.
On the same counts, the results for `CC(C)COC(=O)[C@@](C)(N)Cc1ccc(O)c(O)c1` [Formula (5), isobutyl (S)-2-amino-3-(3,4-dihydroxyphenyl)-2-methylpropanoate] are 0.452, 1.19 and 0.539.
The corresponding values for `CCCOC(=O)[C@@](C)(N)Cc1ccc(O)c(O)c1` [Formula (7), propyl (S)-2-amino-3-(3,4-dihydroxyphenyl)-2-methylpropanoate] are 0.517, 0.88 and 0.454.
As for `CC(C)OC(=O)[C@@](C)(N)Cc1ccc(O)c(O)c1` [Formula (8), isopropyl (S)-2-amino-3-(3,4-dihydroxyphenyl)-2-methylpropanoate], the “AAPH stimulation (L): activity value” value in assay [1] was 0.346. For the same molecule, in assay [2], the “R/L: ratio of activity value” value was found to be 0.95 and the “Fe stimulation (R): activity value” value worked out at 0.327.
In the case of `CCCCOC(=O)[C@@](C)(N)Cc1ccc(O)c(O)c1` [Formula (9), butyl (S)-2-amino-3-(3,4-dihydroxyphenyl)-2-methylpropanoate], the “AAPH stimulation (L): activity value” value in assay [1] is 0.301. For the same molecule, in assay [2], the “R/L: ratio of activity value” value stood at 1.04 and the “Fe stimulation (R): activity value” value worked out at 0.313.
